Source: PubChem BioAssay (NCI)
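All cell lines were grown in 96-well plates and treated with compound for 48 hours. TGI: concentration producing complete growth inhibition.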

Columns and labels:
Assay in all cases: NCI tumour cell line growth inhibition, 48 h
[1] = tested on: A498 renal
[2] = tested on: A549 NSCLC
[3] = tested on: ACHN renal
[4] = tested on: BT-549 breast
[5] = tested on: CAKI-1 renal
[6] = tested on: CCRF-CEM leukemia
[7] = tested on: COLO 205 colon
[8] = tested on: DU-145 prostate
[9] = tested on: EKVX NSCLC
[10] = tested on: HCC-2998 colon
[11] = tested on: HCT-116 colon
[12] = tested on: HCT-15 colon
[13] = tested on: HL-60(TB) leukemia
[14] = tested on: HOP-62 NSCLC
[15] = tested on: HOP-92 NSCLC
[16] = tested on: HS 578T breast
[17] = tested on: HT29 colon
[18] = tested on: IGROV1 ovarian
[19] = tested on: K-562 leukemia
[20] = tested on: KM12 colon
[21] = tested on: LOX IMVI melanoma
[22] = tested on: M14 melanoma
[23] = tested on: MALME-3M melanoma
[24] = tested on: MCF7 breast
[25] = tested on: MDA-MB-231 breast
[26] = tested on: MDA-MB-435
[27] = tested on: MDA-N
[28] = tested on: MOLT-4 leukemia
[29] = tested on: NCI-H226 lung
[30] = tested on: NCI-H23 lung
[31] = tested on: NCI-H460 lung
[32] = tested on: NCI-H522 lung
[33] = tested on: NCI/ADR-RES ovarian
[34] = tested on: OVCAR-3 ovarian
[35] = tested on: OVCAR-4 ovarian
[36] = tested on: OVCAR-5 ovarian
[37] = tested on: OVCAR-8 ovarian
[38] = tested on: PC-3 prostate
[39] = tested on: RPMI-8226 leukemia
[40] = tested on: SF-268 CNS
[41] = tested on: SF-295 CNS
[42] = tested on: SF-539 CNS
[43] = tested on: SK-MEL-2 melanoma
[44] = tested on: SK-MEL-28 melanoma
[45] = tested on: SK-MEL-5 melanoma
[46] = tested on: SK-OV-3 ovarian
[47] = tested on: SN12C renal
[48] = tested on: SNB-19 CNS
[49] = tested on: SR leukemia
[50] = tested on: SW-620 colon
[51] = tested on: T-47D breast
[52] = tested on: TK-10 renal
[53] = tested on: U251 CNS
[54] = tested on: UACC-257 melanoma
[55] = tested on: UACC-62 melanoma
[56] = tested on: UO-31 renal

## COC(=O)CCc1ccc2c(c1)[C@H](C(=O)OC)[C@@H](c1ccc(O)cc1)O2
[1]
  TGI: > 100 µM
[2]
  TGI: > 100 µM
[3]
  TGI: > 100 µM
[4]
  TGI: > 100 µM
[5]
  TGI: > 100 µM
[6]
  TGI: > 100 µM
[7]
  TGI: > 100 µM
[8]
  TGI: > 100 µM
[9]
  TGI: > 100 µM
[10]
  TGI: > 100 µM
[11]
  TGI: 47.1 µM
[12]
  TGI: > 100 µM
[13]
  TGI: > 100 µM
[14]
  TGI: > 100 µM
[15]
  TGI: > 100 µM
[16]
  TGI: > 100 µM
[17]
  TGI: > 100 µM
[18]
  TGI: > 100 µM
[19]
  TGI: > 100 µM
[20]
  TGI: > 100 µM
[21]
  TGI: > 100 µM
[22]
  TGI: > 100 µM
[23]
  TGI: > 100 µM
[24]
  TGI: > 100 µM
[25]
  TGI: > 100 µM
[26]
  TGI: > 100 µM
[27]
  TGI: > 100 µM
[28]
  TGI: > 100 µM
[29]
  TGI: 67.1 µM
[30]
  TGI: > 100 µM
[31]
  TGI: > 100 µM
[32]
  TGI: > 100 µM
[33]
  TGI: > 100 µM
[34]
  TGI: > 100 µM
[35]
  TGI: > 100 µM
[36]
  TGI: > 100 µM
[37]
  TGI: > 100 µM
[38]
  TGI: > 100 µM
[39]
  TGI: > 100 µM
[40]
  TGI: > 100 µM
[41]
  TGI: > 100 µM
[42]
  TGI: 65.9 µM
[43]
  TGI: > 100 µM
[44]
  TGI: > 100 µM
[45]
  TGI: > 100 µM
[46]
  TGI: > 100 µM
[47]
  TGI: > 100 µM
[48]
  TGI: > 100 µM
[49]
  TGI: > 100 µM
[50]
  TGI: > 100 µM
[51]
  TGI: > 100 µM
[52]
  TGI: > 100 µM
[53]
  TGI: > 100 µM
[54]
  TGI: > 100 µM
[55]
  TGI: > 100 µM
[56]
  TGI: > 100 µM
